The test system of series [1] is SH-SY5Y cells. As to the kind of experiment: Neuroprotection against rotenone/oligomycin A, pre-incubation, MTT. To be noted: R/O mixture, compound 0.0001 µM.
In series [2] the test system is SH-SY5Y cells. Briefly: Neuroprotection against oxidative stress, H2O2, MTT.
The target of series [3] is AChE-BACE-1A protein pair (Homo sapiens, UniProt P22303+P56817). As to the kind of experiment: Yeast three-hybrid (Y3H) test, AChE-BACE-1A. The following applies: 10 µM hybrid ligand, DDO/X/A agar plates.
Sequence of AChE-BACE-1A protein pair (P22303 52-577): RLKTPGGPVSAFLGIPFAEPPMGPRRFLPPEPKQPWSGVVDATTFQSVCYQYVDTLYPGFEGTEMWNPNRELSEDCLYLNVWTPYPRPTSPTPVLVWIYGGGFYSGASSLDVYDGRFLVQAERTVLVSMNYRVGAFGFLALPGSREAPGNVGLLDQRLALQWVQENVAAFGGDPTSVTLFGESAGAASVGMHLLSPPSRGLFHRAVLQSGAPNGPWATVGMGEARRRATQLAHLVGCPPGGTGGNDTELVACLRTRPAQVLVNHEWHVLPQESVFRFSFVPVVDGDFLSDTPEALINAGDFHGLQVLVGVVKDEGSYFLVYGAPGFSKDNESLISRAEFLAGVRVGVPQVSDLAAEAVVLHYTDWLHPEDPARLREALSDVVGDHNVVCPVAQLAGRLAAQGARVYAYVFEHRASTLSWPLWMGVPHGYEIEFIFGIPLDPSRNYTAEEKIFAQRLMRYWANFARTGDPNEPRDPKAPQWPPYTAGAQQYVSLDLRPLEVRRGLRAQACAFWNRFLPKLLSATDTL
Sequence of AChE-BACE-1A protein pair (P56817 46-457): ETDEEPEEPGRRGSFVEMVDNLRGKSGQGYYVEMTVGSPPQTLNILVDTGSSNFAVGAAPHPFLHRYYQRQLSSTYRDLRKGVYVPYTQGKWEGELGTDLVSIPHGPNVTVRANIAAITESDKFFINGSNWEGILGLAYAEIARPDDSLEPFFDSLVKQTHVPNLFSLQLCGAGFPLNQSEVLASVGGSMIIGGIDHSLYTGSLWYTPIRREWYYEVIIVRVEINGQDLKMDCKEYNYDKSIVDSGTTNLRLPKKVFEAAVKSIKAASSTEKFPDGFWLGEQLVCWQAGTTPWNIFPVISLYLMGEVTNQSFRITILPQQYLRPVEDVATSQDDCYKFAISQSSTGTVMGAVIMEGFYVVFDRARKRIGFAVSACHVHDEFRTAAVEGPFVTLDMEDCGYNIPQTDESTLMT
Series [4] addresses T1, equine serum BuChE (EqBuChE) (Equus caballus, UniProt P81908).
T1 construct: equine serum BuChE (EqBuChE); from tissue; host or cells: equine serum
As to the kind of experiment: biochemical. To be noted: read-out: BuChE IC50 ± SD.

The target in a further series is Aβ (1–42) (Homo sapiens, UniProt P05067). As to the kind of experiment: Self-induced Aβ(1–42) aggregation, Thioflavin T assay. It counts as biochemical. The source says:
Aβ(1–42) is the most amyloidogenic Aβ fragment found in the AD plaques.
Amyloid β aggregation plays a definitive role in neurodegeneration and AD progression. Thus, inhibition of the Aβ aggregation has been presented as a promising approach for the AD therapy. In order to examine the ability to inhibit Aβ aggregation spectroscopic technique which is analyse with thioflavin T have been used. We investigated the best potent inhibitor towards AChE. […] As well as the study being conducted without the presence of the inhibitor. Aβ42 was dissolved in DMSO to make 125.8 µM stock solution. Each compound (10 µL) and 10 µL of Aβ42 were added into 60 µL of phosphate buffer (PBS at pH 8.0) in a 96-well plate. After shake and incubation for 24 h at 30 °C, 20 µL of 2.5 µM ThT solution in 50 mM glycine–NaOH (pH 8.5) was added. Fluorescence excitation was measured at 446 nm with emission a wavelength of 490 nm after 5 min incubation with the dye. The reported results were obtained as the mean ± SD of triplicates of three independent experiments. […]

Series [5] in a line: In vitro cytotoxicity assay (MTT) on CCL-110. To be noted: human, CCL-110 cells (normal human skin fibroblasts).
Method: Cytotoxicity assay was performed on CCL-110 cell line (normal, human fibroblasts derived from skin). Test over a wide range of concentrations (including the concentrations close to the IC50 of enzymatic inhibition results) was performed.
A further series addresses EeAChE (Electrophorus electricus, UniProt O42275). Briefly: Kinetic characterization of AChE inhibition (Lineweaver–Burk plot). It counts as biochemical, electric eel. To be noted: Km and Vmax. On the procedure: To obtain the mechanism of EeAChE inhibition, kinetic experiments were performed.
Kinetic characterization of AChE and BuChE was performed using the reported method with different concentrations of the substrate (S)—acetylthiocholine iodide (in range of […]) prepared in phosphate buffer (pH 8.0). […] Then, the inhibitor (14 µL) was added into the assay solution. Kinetic characterizations of the hydrolysis of acetylthiocholine […] catalyzed by AChE were done spectrophotometrically at 412 nm. A parallel control with no inhibitor in the mixture, allowed adjusting activities to be measured at various times.

A short description of series [6]: DPPH free-radical scavenging assay. To be noted: read-out: DPPH FRS50 ± SD. A general note: Loss of DPPH colour is used to gauge radical scavenging.
A short description of series [7]: LogP assay (HPLC, calibration curve). It counts as physicochemical. The following applies: reversed-phase HPLC, Waters Xbridge C18 column; Experimental. On the procedure: After pKa assay we decided to use TEA because of the best properties for the assay. Coefficient of determination was over 0.96 for calibration curve (Figure 3). […] LogP values calculated by ChemAxon nad ACD/Percepta software were inflated in comparison to our experimental result (Table 3).
Methanol (POCH) was used as an organic modifier. Demineralized water was purified in our faculty. Triethylamine (TEA) (Sigma Aldrich) was dissolved in concentration 30 mM in methanol and in water. Ten various isocratic mobile phases were used in calibration and assay. The first mobile phase contained 50% methanol solution with 30 mM TEA and 50% water solution with 30 mM TEA. Each next mobile phase contained 5% more methanol solution; 95% methanol solution and 5% water solution mix was used as the last mobile phase; 30 mM triethylamine in all mobile phases allowed us to analyzed basic substances. Basic solutions were used, because a neutral form of the compounds was required in logP assay. […]
The test compound was eluted by all mobile phases and obtained retention times were used to calculate logkw value. LogP value was read from calibration curve. Obtained value was compared with calculated values by online software chemicalize.com (ChemAxon 2018) and ACD/Percepta Version 14.0.0 (Advanced Chemistry Development, Inc., Metropolitan Toronto, ON, Canada).

A short description of series [8]: pKa assay (UV spectra in buffers pH 5.6 to 12.4). It counts as physicochemical. The following applies: phosphate buffers in methanol:water (1:1), pH 5.6 to 12.4, Experimental. The source says: LogP is one of properties used in Lipinski’s rule of five. Our compounds were designed as a potential drug in AD therapy. Fulfillment of Lipinski’s rule of five allows us to suppose that the compound will show adequate pharmacokinetics. […] In the chemical structure of our compound occur four nitrogen atoms with a free ion pair, which allow us to gradually ionize the whole compound at different pH value. […] Direct determination of the ratio between consecutive form of molecule allows to measure the pKa value (Figure 2). The change of distribution charge in molecule affects noticeably the change of the ultraviolet (UV) spectra. […] We used absorbance ratios and mathematical calculation allowed to estimate specific pH value for each ionized form and finally to calculate pKa values (Figure 3). The value pKa1 calculated by ChemAxon and ACD/Percepta software are close to value pKa1 obtained by our method. pKa2 value calculated by ChemAxon software and pKa2 calculated by ACD/Percepta were inflated in comparison with our experimental result pKa2 (Table 3). […]
Spectrophotometric measurement was performed in 96 wells plate by using Synergy H1 microplate reader (BioTek, Vinoosky, VT, USA) with Gen5 software (BioTek). […] Further calculations on UV spectra were performed by using mathematical ratios of absorbance 332/343 nm and 343/332 nm and according to methodology developed by Musil et al.. […]

A short description of series [9]: ABTS radical scavenging assay. To be noted: read-out: ABTS FRS50 ± SD.
For series [10], the system named is SH-SY5Y cells. Briefly: Neuroprotection against rotenone/oligomycin A, co-incubation, MTT. The following applies: R/O mixture.
Setting [11] is: Homo sapiens, SH-SY5Y, read-out: % cell viability.

Like-named read-outs stand apart in the source and are kept apart here.

The values that follow come from PMC6386991 (International Journal of Molecular Sciences, 2019).

Sequence of Aβ (1–42) (P05067 672-713 limits assumed): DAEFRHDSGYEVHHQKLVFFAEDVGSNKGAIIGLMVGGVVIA
T1 sequence (P81908 whole entry): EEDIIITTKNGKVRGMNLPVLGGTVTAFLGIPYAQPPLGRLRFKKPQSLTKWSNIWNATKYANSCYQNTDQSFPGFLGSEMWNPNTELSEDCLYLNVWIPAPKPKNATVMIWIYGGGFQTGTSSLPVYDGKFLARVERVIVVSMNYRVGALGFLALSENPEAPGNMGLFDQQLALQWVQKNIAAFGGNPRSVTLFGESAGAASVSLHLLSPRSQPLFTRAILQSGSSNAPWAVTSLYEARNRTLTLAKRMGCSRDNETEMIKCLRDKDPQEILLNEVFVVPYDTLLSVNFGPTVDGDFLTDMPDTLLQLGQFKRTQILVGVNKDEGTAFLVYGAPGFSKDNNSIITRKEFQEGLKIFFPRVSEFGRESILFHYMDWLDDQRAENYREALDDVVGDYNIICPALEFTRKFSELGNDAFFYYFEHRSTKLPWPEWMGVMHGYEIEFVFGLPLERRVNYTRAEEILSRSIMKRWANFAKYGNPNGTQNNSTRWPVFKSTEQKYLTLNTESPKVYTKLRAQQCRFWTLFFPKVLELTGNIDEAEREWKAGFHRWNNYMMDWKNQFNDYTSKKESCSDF
Sequence of EeAChE (O42275 24-633): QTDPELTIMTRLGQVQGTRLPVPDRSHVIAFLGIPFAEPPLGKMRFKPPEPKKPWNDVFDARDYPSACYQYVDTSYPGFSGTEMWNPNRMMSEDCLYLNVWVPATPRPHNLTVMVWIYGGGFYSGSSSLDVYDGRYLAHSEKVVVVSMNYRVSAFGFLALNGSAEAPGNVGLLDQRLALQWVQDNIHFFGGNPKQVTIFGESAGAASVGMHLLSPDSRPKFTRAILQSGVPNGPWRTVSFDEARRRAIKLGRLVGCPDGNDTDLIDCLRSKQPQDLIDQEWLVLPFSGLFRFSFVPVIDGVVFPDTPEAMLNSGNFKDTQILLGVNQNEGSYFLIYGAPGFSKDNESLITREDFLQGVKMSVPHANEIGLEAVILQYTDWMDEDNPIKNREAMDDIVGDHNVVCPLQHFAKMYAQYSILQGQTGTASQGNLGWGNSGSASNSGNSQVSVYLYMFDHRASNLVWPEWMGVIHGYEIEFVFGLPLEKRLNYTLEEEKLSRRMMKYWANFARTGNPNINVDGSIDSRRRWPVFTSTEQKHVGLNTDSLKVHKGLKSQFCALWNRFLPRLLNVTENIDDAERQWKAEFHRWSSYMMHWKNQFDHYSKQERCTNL

Turning to `O=C(NCCCCCCNc1c2c(nc3ccccc13)CCC2)c1ccc(Cl)nc1` [Compound 3e], in the series on SH-SY5Y cells [1], the neuroprotection turned out to be 3.98%. Besides, the “neuroprotective activity (in words)” value in the series on SH-SY5Y cells [2] (H2O2 100 µM, compound 10–0.01 µM) is on record as “at none concentration, 3e had neuroprotective activity”. In addition, in the series on SH-SY5Y cells [2] (setting [11]), the viability (commonly a per cent measure of how many cells are alive, often set against a control) at 0.01 µM was 60.4%; the viability at 0.1 µM is 29.2%; the viability at 1 µM turned out to be 18.4%; the viability at 10 µM is 14.3%. Moreover, the “hybrid ligand-induced interaction AChE-BACE-1A” value in series [3] is on record as “Blue colonies, indicating putative interaction”. The half-inhibitory concentration (IC50) (in general, the concentration at which inhibition is half-maximal) in series [4] came to 0.153 ± 0.02 µM. This molecule also yielded an IC50 against Aβ (1–42) of 15 ± 0.6 µM. At 10 µM the inhibition at Aβ (1–42) (10 µM compound) was 40 ± 4.8%. Further, 25 µM produced 63 ± 4.2% inhibition against Aβ (1–42) (25 µM compound). Also, the inhibition (usually the change of the read-out against control, counted positive when it falls) at 50 µM at Aβ (1–42) (50 µM compound) is 72 ± 2.9%. Besides, on Aβ (1–42) (100 µM compound), the inhibition at 100 µM is 79 ± 3.2%. The same molecule gave an IC50 at 48 h in [5] of 0.638 µM. The “type of EeAChE inhibition” value at EeAChE is “mixed inhibition”. In series [6], the EC50 is greater than 20000 µM. Besides, in series [7], the chromatographic logP (in general, a lipophilicity value derived from retention on a column) was found to be 3.99. Moreover, in [8] (read-out: pKa1), the pKa was found to be 8.53. The pKa in series [8] (read-out: pKa2) turned out to be 11.3. In “in vitro”, this molecule came in with a viability at 24 h, 0.1 µM of 100%; a viability at 24 h, 1 µM of 99.7%; a viability at 24 h, 10 µM of 93%. The EC50 in series [9] is greater than 20000 µM. Further, the “neuroprotective properties (in words)” value with SH-SY5Y cells [10] was “did not have neuroprotective properties at any concentrations”.
